Reference: patent publication US10195204B2, “Methods of treating hemoglobinopathies” (DUKE UNIVERSITY, priority 2011, dated 2019)

Assays:
Format in all cases: cell-based, human
[1] = system: ERK1/2 phosphorylation in SS RBCs; experiment: ERK1/2 phosphorylation in SS RBCs, Western blot (phosphoERK normalized to total ERK)
Procedure: Aliquots of packed RBCs were treated with various reagents to affect cAMP signaling or protein phosphorylation. […] Treated RBCs were then washed 5 times with 4 ml PBS with Ca^2+ and Mg^2+. Normal RBCs were used as controls. Prior to adhesion assays, treated RBCs were labeled with PKH 26 red fluorescent cell linker kit (Sigma), following the manufacturer's instructions.
Treated packed RBCs were lysed with hypotonic buffer (5 mM Na2HPO4+1 mM EDTA+0.1% NaN3, pH 8) containing 2 mM phenylmethylsulphonylfluoride (PMSF, Sigma), phosphatase inhibitor cocktail (Sigma) and protease inhibitor cocktail (Sigma). Protein separation by polyacrylamide gel electrophoresis using equal amounts of total RBC membrane ghost proteins per lane, after correcting total protein measurements for residual hemoglobin content, and Western blot^19 using the appropriate Ab were then performed. Mouse 3T3/A31 fibroblast lysate was used as a ERK1/2 positive control for immunoblots. For total ERK1/2, membranes blotted with anti-phosphoERK Ab were stripped and reexposed to Western blotting using anti-ERK1/2 Ab. Bands were analyzed densitometrically using ImageJ software downloaded from the NIH website. PhosphoERK1/2 data were normalized according to total ERK1/2 and are presented as fold change in ERK phosphorylation.

[2] = system: AA RBC membrane ghost phosphopeptides; experiment: Label-free quantitative phosphoproteomic analysis of normal (AA) RBC membrane ghosts
Procedure: Ghosted RBCs were spun at 14,000 rpm for 15 min at 4° C. to pellet membranes. Membrane pellets were washed with 1 mL 50 mM ammonium bicarbonate (pH 8.0) with vortexing and were then spun at 14,000 rpm for 30 min at 4° C. The supernatant was then removed and 500 μL of 50 mM ammonium bicarbonate with μL 0.2% acid-labile surfactant (ALS-1) in 50 mM ammonium bicarbonate (pH 8.0) was added. Samples were subjected to probe sonication three-times for 5 sec with cooling on ice between and insoluble material was cleared by centrifugation at 14,000 rpm for 30 mins at 4° C. Samples were normalized to approximately 2 μg/μl following a micro-Bradford assay (Pierce Bioscience), and were reduced with a final concentration of 10 mM dithiothreitol at 80° C. for 20 min. Samples were then alkylated with a final concentration of 20 mM iodoacetamide at room temperature for 45 min and trypsin was added to a final ratio of 1-to-50 (w/w) enzyme-to-protein and allowed to digest at 37° C. for 18 hr. To remove ALS-1, samples were acidified to pH 2.0 with neat TFA, incubated at 60° C. for 2 hrs and spun at 14,000 rpm to remove hydrolyzed ALS-1. Samples were either subjected directly to LC-MS analysis or subjected to a TiO2 based phosphopeptide enriched protocol.
To enrich for phosphorylated peptides prior to LC-MS analysis, either 1,125 μg and 970 μg of total digested protein from RBC ghosts co-incubated with recombinant active ERK2 experiments and experiments using epinephrine-treated cells, respectively, were brought to near dryness using vacuum centrifugation and then resuspended in 200 μL of 80% acetonitrile, 1% TFA, 50 mg/ml MassPrep Enhancer (pH 2.5) (Waters Corp. Milford, Mass.). Samples were loaded onto an in-house packed TiO2 spin column (Protea Biosciences) with a 562 μg or 485 μg binding capacity for active ERK2 treated or epinephrine treated experiments, respectively. Samples were washed twice with 200 μL 80% acetonitrile, 1% TFA, 50 mg/ml MassPrep Enhancer (pH 2.5) followed by two washes with 200 μL 80% acetonitrile, 1% TFA (pH 2.5). Retained peptides were eluted twice with 100 μL 20% acetonitrile, 5% aqueous ammonia (pH 10.0), acidified to pH 3 with neat formic acid and then brought to dryness using vacuum centrifugation. […]
MS data from each phosphopeptide enriched sample was acquired on a Thermo LTQ-Orbitrap XL mass spectrometer operating in positive-ion mode with an electrospray voltage of 2.0 kV with real-time lockmass correction on ambiant polycyclodimethylsiloxane (m/z 445.120025) enabled. […] Each sample was analyzed four-times, one of which was used for additional qualitative identifications only and was not included in the quantitative analysis, with product ions above a threshold of 500 counts were acquired for the top 5 most intense ions in the linear ion trap. […]

[3] = system: glycophorin A phosphorylation; experiment: 32P labeling, glycophorin A immunoprecipitation and phosphorylation in SS RBCs
Excerpt: Glycophorin A phosphorylation and immunoprecipitation. […] Cells were then washed 4 times. […] Blots were immunostained with anti-glycophorin A mAb.

SMILES	ERK phosphorylation vs 1 min exposure [1]	ERK phosphorylation vs sham-treated [1]	fold increase in ERK phosphorylation [1] [fold]	increase in ERK phosphorylation above basal levels [1] [fold]	patients whose SS RBCs exhibited more than 1.5-fold elevation in ERK phosphorylation (responders) [1] [%]	change in phosphorylation of the CAP1 serine ([2]; AA RBCs, epinephrine 30 min vs 1 min)	increase in glycophorin A phosphorylation over sham-treated SS RBCs ([3]; epinephrine in the presence of SPI) [fold]	effect on forskolin-induced ERK1/2 phosphorylation ([1]; SS RBCs)	effect on epinephrine-induced ERK1/2 phosphorylation ([1]; SS RBCs pre-incubated with inhibitor, then 20 nM epinephrine 1 min)	effect on PTx-induced ERK phosphorylation ([1]; SS RBCs, 2 μg/ml PTx)	effect on Ser540/Ser542 doubly phosphorylated peptide within protein 4.1 ([2]; AA RBCs treated with U0126)	effect on combined effect of epinephrine and SPI on glycophorin A phosphorylation ([3]; SS RBCs pre-incubated with 10 μM U0126 for 1 h)
CNC[C@H](O)c1ccc(O)c(O)c1 [epinephrine]	decreased	markedly increased	2.1±0.1	2±0.17	40	+1.4 fold	2.93±0.35	–	–	–	–	–
N#CC(=C(/N)Sc1ccccc1N)/C(C#N)=C(\N)Sc1ccccc1N [U0126]	–	–	–	–	–	–	–	prevented	significantly inhibited	blocked	did not induce a decrease	significantly decreased
